Reference: patent publication US20110039762A1, “TARGETED ANTIMICROBIAL MOIETIES” (C3 JIAN, INC., priority 2009, published 2011)
Entries after “also recorded” stand apart in the source; their conditions may differ.

Tested on: microorganisms (e.g., bacteria, yeasts, fungi)
Assay: Targeting peptide binding to target microorganisms (Table 3)
Details: microorganism(s) the targeting peptide binds; binding in aqueous buffers depending on peptide solubility, preferably 1x PBS

| Substance | Target(s) |
| --- | --- |
| PF-159 (TMAFVEKAQLRVPVGDDLPV; Peptide with targeting and/or antimicrobial activity) | S. epidermidis |
| PF-160 (SFHASLTKNEKPIKSTG; Peptide with targeting and/or antimicrobial activity) | S. epidermidis |
| PF-161 (RGRALASTATTRPARRRR; Peptide with targeting and/or antimicrobial activity) | S. epidermidis; also recorded: M. luteus; also recorded: E. coli; also recorded: C. jejuni |
| PF-162 (GIRRLHSVENLNREISHRMAGLR; Peptide with targeting and/or antimicrobial activity) | S. epidermidis and MRSA |
| PF-163 (TSWLRAAERQEIGEPTKTFGEKTTSL; Peptide with targeting and/or antimicrobial activity) | S. epidermidis |
| PF-165 (GPVSVVASLRRGTTVQRHSQNNHNKGKP; Peptide with targeting and/or antimicrobial activity) | MRSA and C. jejuni |
| PF-166 (SKAVSRKRSI; Peptide with targeting and/or antimicrobial activity) | E. coli; also recorded: C. jeikeium |
| PF-169 (APGSAADSPRSRADD; Peptide with targeting and/or antimicrobial activity) | S. epidermidis; also recorded: E. coli; also recorded: C. albicans; also recorded: E. faecalis; also recorded: C. jeikeium |
| PF-172 (LTGVRRPWRAPWAGTSGWALR; Peptide with targeting and/or antimicrobial activity) | S. epidermidis and M. luteus and E. coli and P. aeruginosa and MRSA and E. faecalis and C. jejuni |
| PF-174 (RGGDSPARRRPGLAGPGGPG; Peptide with targeting and/or antimicrobial activity) | S. epidermidis; also recorded: P. aeruginosa; also recorded: C. jeikeium |
| PF-177 (VTSEPGIAHDIRLLPRAAAFR; Peptide with targeting and/or antimicrobial activity) | M. luteus and MRSA and E. faecalis and C. jeikeium |
| PF-181 (GIAPRRNEWGAVGGR; Peptide with targeting and/or antimicrobial activity) | S. epidermidis and M. luteus and E. coli and MRSA and E. faecalis and C. jeikeium |
| PF-182 (LPATRDKTRVPASVAGAP; Peptide with targeting and/or antimicrobial activity) | S. epidermidis; also recorded: M. luteus; also recorded: E. coli; also recorded: E. faecalis; also recorded: C. jeikeium |
| PF-183 (KPGISVENRQ; Peptide with targeting and/or antimicrobial activity) | S. epidermidis and M. luteus and E. coli and C. albicans and MRSA and E. faecalis and C. jeikeium |
| PF-184 (LIADRHIRA; Peptide with targeting and/or antimicrobial activity) | S. epidermidis and M. luteus and E. coli and P. aeruginosa and C. albicans and MRSA and C. jeikeium |
| PF-185 (RPAQARQGPGGLIADRHIRA; Peptide with targeting and/or antimicrobial activity) | E. coli; also recorded: P. aeruginosa |
| PF-187 (EIQKIAKGVSGQVYGPSRQITISKKR; Peptide with targeting and/or antimicrobial activity) | S. epidermidis and M. luteus and E. coli and MRSA |
| PF-189 (GNLTRSREAARATQ; Peptide with targeting and/or antimicrobial activity) | S. epidermidis and M. luteus and C. albicans and MRSA and E. faecalis and C. jejuni |
| PF-193 (PPHCPPGHAKKGWC; Peptide with targeting and/or antimicrobial activity) | S. epidermidis and M. luteus and E. coli and MRSA and E. faecalis and C. jejuni |
| PF-194 (MKGNKLATAHEQPVKNSAPPL; Peptide with targeting and/or antimicrobial activity) | C. jeikeium |
| PF-195 (EMAEGSADDRLRKTPRDC; Peptide with targeting and/or antimicrobial activity) | S. epidermidis; also recorded: M. luteus; also recorded: E. faecalis; also recorded: C. jeikeium |
| PF-197 (CNALLRRGHPPSAL; Peptide with targeting and/or antimicrobial activity) | S. epidermidis; also recorded: M. luteus; also recorded: C. albicans; also recorded: E. faecalis; also recorded: C. jejuni |
| PF-200 (GIELKSLIMAQIERWRQA; Peptide with targeting and/or antimicrobial activity) | S. epidermidis and M. luteus and MRSA and E. faecalis and C. jeikeium |
| PF-201 (GCRPASLSDADPDGR; Peptide with targeting and/or antimicrobial activity) | S. epidermidis; also recorded: M. luteus; also recorded: E. coli; also recorded: C. albicans; also recorded: E. faecalis; also recorded: C. jeikeium; also recorded: C. jejuni |
| PF-202 (ALNRASLRLALGE; Peptide with targeting and/or antimicrobial activity) | S. epidermidis and M. luteus and E. coli and MRSA and E. faecalis and C. jeikeium and C. jejuni |

| Substance | Target(s) |
| --- | --- |
| PF-206 (KLRSASKKSLQEKSCGIMPEKPAG; Peptide with targeting and/or antimicrobial activity) | M. luteus; also recorded: C. albicans; also recorded: C. jeikeium; also recorded: C. jejuni |
| PF-207 (AAGCRDLGSLSSLVTNPS; Peptide with targeting and/or antimicrobial activity) | M. luteus; also recorded: C. jeikeium |
| PF-210 (EREDGCDAMPLP; Peptide with targeting and/or antimicrobial activity) | S. epidermidis and P. aeruginosa and C. albicans and MRSA and E. faecalis and C. jeikeium and C. jejuni |
| PF-213 (MTTGVDFIIEKV; Peptide with targeting and/or antimicrobial activity) | S. epidermidis |
| PF-214 (GHLRVCWVFSASLLTPFRSATLI; Peptide with targeting and/or antimicrobial activity) | S. mutans; also recorded: S. epidermidis; also recorded: M. luteus; also recorded: E. coli; also recorded: P. aeruginosa; also recorded: A. baumannii |
| PF-216 (ESVDKITEALEEDGFPAKVQ; Peptide with targeting and/or antimicrobial activity) | S. mutans; also recorded: E. coli |
| PF-217 (DWEFTHKTIPQKK; Peptide with targeting and/or antimicrobial activity) | S. mutans |
| PF-218 (SETPEKPVGTFFYSIYYKIIL; Peptide with targeting and/or antimicrobial activity) | S. epidermidis; also recorded: M. luteus; also recorded: P. aeruginosa; also recorded: A. baumannii |
| PF-219 (FLALAVIAGLFKVILIYAAPYLK; Peptide with targeting and/or antimicrobial activity) | S. epidermidis; also recorded: M. luteus; also recorded: P. aeruginosa; also recorded: A. baumannii |
| PF-221 (VFDNIDINF; Peptide with targeting and/or antimicrobial activity) | S. epidermidis; also recorded: M. luteus; also recorded: P. aeruginosa |
| PF-223 (VKFCIECQTKLERKRR; Peptide with targeting and/or antimicrobial activity) | S. epidermidis; also recorded: M. luteus; also recorded: A. baumannii |
| PF-225 (MNCASPEFKKLMELYK; Peptide with targeting and/or antimicrobial activity) | S. epidermidis |
| PF-228 (NQLGSQAFAQL; Peptide with targeting and/or antimicrobial activity) | S. mutans |
| PF-229 (DPILIQIGFTRFALRKAEAEKIEIQVEEGVPA; Peptide with targeting and/or antimicrobial activity) | S. epidermidis; also recorded: M. luteus; also recorded: P. aeruginosa; also recorded: A. baumannii |
| PF-230 (EDKPTNTIQEIKPVKWQ; Peptide with targeting and/or antimicrobial activity) | S. mutans |
| PF-231 (AVRDFKKSVREEDEAASLNSPRTIDAQVKTSESTSVKS; Peptide with targeting and/or antimicrobial activity) | S. mutans |
| PF-232 (FDQLYALEREGKLDELLA; Peptide with targeting and/or antimicrobial activity) | S. epidermidis; also recorded: M. luteus |
| PF-236 (KEIRTATVAELNAKRRLTSAEQALAEVS; Peptide with targeting and/or antimicrobial activity) | S. mutans; also recorded: S. epidermidis; also recorded: E. coli; also recorded: C. albicans; also recorded: S. pneumoniae; also recorded: E. faecalis |
| PF-237 (YVKPKVGVHE; Peptide with targeting and/or antimicrobial activity) | S. epidermidis |
| PF-238 (RNAVVVTEATFPKYEEEITNYLNRRFGEDWSLKLEKCSVA; Peptide with targeting and/or antimicrobial activity) | S. mutans and S. epidermidis and E. coli and P. aeruginosa and C. albicans and MRSA and S. pneumoniae and E. faecalis |
| PF-239 (PKHNVVTGVSVDLDYKP; Peptide with targeting and/or antimicrobial activity) | S. mutans; also recorded: E. coli |
| PF-240 (RITEVPPDEHSDR; Peptide with targeting and/or antimicrobial activity) | S. mutans; also recorded: E. coli |
| PF-242 (KLFEDPLIKSKAVENFQTTWHEQCLAKELAKNM; Peptide with targeting and/or antimicrobial activity) | S. mutans; also recorded: E. coli |
| PF-244 (HMRTISYLLAFAKFSLFIPPKQSLKRL; Peptide with targeting and/or antimicrobial activity) | S. epidermidis; also recorded: M. luteus; also recorded: P. aeruginosa; also recorded: A. baumannii |
